Values after ≈ are worked out from the molar mass of the structure shown.
How the values were obtained:
[1] = tested on: Mycobacterium tuberculosis; assay: microbe, parasite or virus in culture; settings: H37Rv, 120 h
Description: Antimicrobial activity against wild-type Mycobacterium tuberculosis H37Rv assessed as growth inhibition after 5 days by microdilution method

[2] = tested on: Mycobacterium tuberculosis; assay: microbe, parasite or virus in culture; settings: 120 h
Description: Antimicrobial activity against Mycobacterium tuberculosis assessed as growth inhibition after 5 days by microdilution method

[3] = Lipophilicity, log D of the compound; type: physicochemical; settings: octanol/water
[4] = Aqueous solubility of the compound; type: physicochemical; settings: buffer
[5] = Cytotoxicity against human THP1 cells assessed as cell viability after 72 hrs by resazurin staining-based fluorimetric analysis; settings: THP-1 cells
Streptococcus pneumoniae = assay: Antimicrobial activity against Streptococcus pneumoniae; type: functional
[6] = tested on: Mycobacterium tuberculosis; assay: Bactericidal activity against hypoxia induced nonreplicating persistent Mycobacterium tuberculosis H37Rv assessed as concentration required to reduce >/= 2 log10 CFU/ml after 7 days; type: functional
[7] = tested on: Mycobacterium tuberculosis; assay: Bactericidal activity against Mycobacterium tuberculosis H37Rv infected in human THP1 cells assessed as reduction in CFU at 1 to 4 times MIC by time-kill method; type: functional, THP-1
Haemophilus influenzae = assay: Antimicrobial activity against Haemophilus influenzae; type: functional
[8] = tested on: Mycobacterium tuberculosis; assay: Bactericidal activity against Mycobacterium tuberculosis H37Rv after 5 days; type: functional; settings: 120 h
[9] = tested on: Mycobacterium tuberculosis; type: functional; settings: 120 h
[10] = target: DNA gyrase subunit A/DNA gyrase subunit B (Mycobacterium tuberculosis (strain ATCC 25618 / H37Rv), UniProt P9WG45+P9WG47)
Description: Inhibition of Mycobacterium tuberculosis DNA gyrase-mediated relaxed pBR322 DNA supercoiling by gel electrophoresis

Pseudomonas aeruginosa = assay: Antimicrobial activity against Pseudomonas aeruginosa; type: functional
[11] = target: T1, Enoyl-[acyl-carrier-protein] reductase [NADH] (Mycobacterium tuberculosis, UniProt P9WGR1)
T1 sequence (P9WGR1 whole entry): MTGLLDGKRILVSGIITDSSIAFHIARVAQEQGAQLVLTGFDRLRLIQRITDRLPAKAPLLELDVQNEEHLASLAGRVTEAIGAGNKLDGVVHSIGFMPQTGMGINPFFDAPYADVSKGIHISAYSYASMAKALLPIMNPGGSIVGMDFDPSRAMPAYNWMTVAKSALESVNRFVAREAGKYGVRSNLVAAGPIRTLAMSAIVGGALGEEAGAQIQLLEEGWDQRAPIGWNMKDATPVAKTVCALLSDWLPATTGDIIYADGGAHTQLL
Description: Inhibition of Mycobacterium tuberculosis InhA using dodecyl coA as substrate by LC-MS/MS analysis

Staphylococcus aureus = assay: Antimicrobial activity against Staphylococcus aureus; type: functional
Klebsiella pneumoniae = assay: Antimicrobial activity against Klebsiella pneumoniae; type: functional
Escherichia coli = assay: Antimicrobial activity against Escherichia coli; type: functional
[12] = tested on: Mycolicibacterium smegmatis; assay: Inhibition of oxidative phosphorylation in Mycobacterium smegmatis membrane vesicles assessed as inhibition of NADH driven ATP synthesis by luciferin/luciferase assay; type: functional

Sequence of DNA gyrase subunit A/DNA gyrase subunit B (P9WG45 whole entry): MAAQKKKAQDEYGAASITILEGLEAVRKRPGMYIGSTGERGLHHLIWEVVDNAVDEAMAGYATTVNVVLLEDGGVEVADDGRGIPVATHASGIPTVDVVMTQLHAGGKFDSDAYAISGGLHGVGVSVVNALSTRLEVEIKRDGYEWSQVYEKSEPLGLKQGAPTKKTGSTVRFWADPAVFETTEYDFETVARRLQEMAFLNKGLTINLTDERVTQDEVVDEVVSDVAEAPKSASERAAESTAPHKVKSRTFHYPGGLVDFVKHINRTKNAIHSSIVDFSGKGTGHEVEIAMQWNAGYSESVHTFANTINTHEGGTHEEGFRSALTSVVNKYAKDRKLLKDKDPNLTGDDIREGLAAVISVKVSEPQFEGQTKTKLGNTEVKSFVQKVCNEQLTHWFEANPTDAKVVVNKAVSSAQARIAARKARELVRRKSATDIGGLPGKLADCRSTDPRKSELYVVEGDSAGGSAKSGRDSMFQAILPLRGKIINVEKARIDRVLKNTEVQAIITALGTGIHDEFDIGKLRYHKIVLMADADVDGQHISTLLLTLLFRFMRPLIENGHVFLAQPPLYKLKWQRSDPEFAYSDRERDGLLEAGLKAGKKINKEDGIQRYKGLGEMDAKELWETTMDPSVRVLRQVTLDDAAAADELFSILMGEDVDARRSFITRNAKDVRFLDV
Sequence of DNA gyrase subunit A/DNA gyrase subunit B (P9WG47 whole entry): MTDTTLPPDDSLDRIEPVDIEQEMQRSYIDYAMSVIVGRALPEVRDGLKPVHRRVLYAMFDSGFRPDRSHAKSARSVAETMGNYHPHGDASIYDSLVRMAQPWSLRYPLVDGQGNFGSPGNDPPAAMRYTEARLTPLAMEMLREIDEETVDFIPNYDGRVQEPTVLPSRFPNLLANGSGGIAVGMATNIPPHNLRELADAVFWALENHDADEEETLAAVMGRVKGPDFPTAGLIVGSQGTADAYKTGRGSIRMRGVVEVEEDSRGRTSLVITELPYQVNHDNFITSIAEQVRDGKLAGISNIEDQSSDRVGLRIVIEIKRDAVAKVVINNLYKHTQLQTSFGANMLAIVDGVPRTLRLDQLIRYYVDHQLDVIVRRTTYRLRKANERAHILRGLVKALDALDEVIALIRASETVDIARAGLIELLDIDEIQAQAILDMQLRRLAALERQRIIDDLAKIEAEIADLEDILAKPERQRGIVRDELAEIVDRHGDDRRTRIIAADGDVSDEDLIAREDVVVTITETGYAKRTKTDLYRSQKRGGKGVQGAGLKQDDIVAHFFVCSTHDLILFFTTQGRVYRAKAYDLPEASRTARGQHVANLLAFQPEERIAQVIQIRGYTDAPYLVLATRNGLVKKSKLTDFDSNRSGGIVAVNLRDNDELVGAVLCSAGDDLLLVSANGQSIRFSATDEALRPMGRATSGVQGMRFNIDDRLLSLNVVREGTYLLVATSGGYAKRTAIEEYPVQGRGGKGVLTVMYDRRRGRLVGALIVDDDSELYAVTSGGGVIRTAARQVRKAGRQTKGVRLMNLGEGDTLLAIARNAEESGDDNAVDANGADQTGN

Structure (SMILES): CC1COC2(CCN(c3nc(=O)c4cc(C(F)(F)F)cc([N+](=O)[O-])c4s3)CC2)O1 (stereo not drawn)
- MIC [1]: 0.01 µM (≈ 0.00431 µg/mL)
- MIC [2]: 0.01 µM (≈ 0.00431 µg/mL)

Structure (SMILES): Cc1cccc2c(CN3CCCC3)c(-c3ccccc3)[nH]c12
- logD [3]: 1.8
- solubility [4]: 752 µM (≈ 218 µg/mL)

Structure (SMILES): COCCN(C1CCN(Cc2c(-c3ccccc3)[nH]c3c(C)cccc23)C1)S(C)(=O)=O (stereo not drawn)
- CC50 at 72 h [5]: > 64 µM
- MIC (Streptococcus pneumoniae): > 200 µM
- Activity [6]: 3.1 µM
- logD [3]: 3
- fold change (FC) [7]: 1.5
- MIC (Haemophilus influenzae): > 200 µM
- MBC [8]: 3.8 µM (≈ 1.68 µg/mL)
- MIC [9]: 0.8 µM (≈ 0.353 µg/mL)
- IC50 [10]: > 100 µM
- MIC (Pseudomonas aeruginosa): > 200 µM
- IC50 [11]: > 100 µM
- MIC [1]: 0.8 µM (≈ 0.353 µg/mL)
- MIC (Staphylococcus aureus): > 200 µM
- MIC [2]: 0.8 µM (≈ 0.353 µg/mL)
- MIC (Klebsiella pneumoniae): > 200 µM
- solubility [4]: 5.4 µM (≈ 2.38 µg/mL)
- MIC (Escherichia coli): > 200 µM
- IC50 [12]: 15.6 µM

Structure (SMILES): COCCN(C1CCN(Cc2c(-c3ccccc3)[nH]c3c(OC)cccc23)C1)S(C)(=O)=O (stereo not drawn)
- logD [3]: 2.8
- solubility [4]: 103 µM (≈ 47.1 µg/mL)

Structure (SMILES): O=S(=O)(NC1CCN(Cc2ccncc2)CC1)c1ccc(-n2cccn2)cc1
- CC50 at 72 h [5]: > 64 µM
- MIC (Streptococcus pneumoniae): > 200 µM
- Activity [6]: 25 µM
- logD [3]: 2.6
- MIC (Haemophilus influenzae): > 200 µM
- MBC [8]: 50 µM (≈ 19.9 µg/mL)
- MIC [9]: 3.3 µM (≈ 1.31 µg/mL)
- IC50 [10]: > 100 µM
- MIC (Pseudomonas aeruginosa): > 200 µM
- IC50 [11]: > 100 µM
- MIC [1]: 3.3 µM (≈ 1.31 µg/mL)
- MIC (Staphylococcus aureus): > 200 µM
- MIC [2]: 1.6 µM (≈ 0.636 µg/mL)
- MIC (Klebsiella pneumoniae): > 200 µM
- solubility [4]: 149 µM (≈ 59.2 µg/mL)
- MIC (Escherichia coli): > 200 µM
- IC50 [12]: > 70 µM

Structure (SMILES): Cc1cc(-n2cccn2)ccc1S(=O)(=O)NC1CCN(Cc2ccncc2)CC1
- CC50 at 72 h [5]: 32 µM
- MIC (Streptococcus pneumoniae): > 200 µM
- Activity [6]: >200 µM
- logD [3]: 2.3
- fold change (FC) [7]: 1.5
- MIC (Haemophilus influenzae): > 200 µM
- MBC [8]: 1.6 µM (≈ 0.658 µg/mL)
- MIC [9]: 0.8 µM (≈ 0.329 µg/mL)
- MIC (Pseudomonas aeruginosa): > 200 µM
- MIC [1]: 0.8 µM (≈ 0.329 µg/mL)
- MIC (Staphylococcus aureus): > 200 µM
- MIC (Klebsiella pneumoniae): > 200 µM
- solubility [4]: 66 µM (≈ 27.2 µg/mL)
- MIC (Escherichia coli): > 200 µM

Structure (SMILES): O=S(=O)(NC1CCN(Cc2ccncc2)CC1)c1ccc(-n2cccn2)cn1
- logD [3]: 1.7
- solubility [4]: 1000 µM (≈ 398 µg/mL)

Structure (SMILES): Cc1cccc2c(CN3CCC(NS(C)(=O)=O)C3)c(-c3ccccc3)[nH]c12 (racemic)
- CC50 at 72 h [5]: 32 µM
- MIC (Streptococcus pneumoniae): > 200 µM
- Activity [6]: >200 µM
- MIC (Haemophilus influenzae): > 200 µM
- MBC [8]: 1.6 µM (≈ 0.614 µg/mL)
- MIC [9]: 1.6 µM (≈ 0.614 µg/mL)
- MIC (Pseudomonas aeruginosa): > 200 µM
- MIC [1]: 1.6 µM (≈ 0.614 µg/mL)
- MIC (Staphylococcus aureus): > 200 µM
- MIC (Klebsiella pneumoniae): > 200 µM
- MIC (Escherichia coli): > 200 µM

Structure (SMILES): COc1nc2ccc(Br)cc2cc1[C@@H](c1ccccc1)[C@@](O)(CCN(C)C)c1cccc2ccccc12 [BEDAQUILINE]
- IC50 [12]: 0.001 µM

Structure (SMILES): NNC(=O)c1ccncc1 [ISONIAZID]
- MIC [1]: 0.5 µM (≈ 0.0686 µg/mL)
- MIC [2]: > 7.5 µM

Structure (SMILES): CO[C@H]1/C=C/O[C@@]2(C)Oc3c(C)c(O)c4c(O)c(c(/C=N/N5CCN(C)CC5)c(O)c4c3C2=O)NC(=O)/C(C)=C\C=C\[C@H](C)[C@H](O)[C@@H](C)[C@@H](O)[C@@H](C)[C@H](OC(C)=O)[C@@H]1C [RIFAMPIN]
- MIC [1]: 0.003 µM (≈ 0.00247 µg/mL)
- MIC [2]: 0.003 µM (≈ 0.00247 µg/mL)
